Test results taken from article doi:10.1101/2021.04.08.439011v1 (biorxiv, 2021).

Tests used:
Details in all cases: 1 µM; binder
ICK = ICK (Homo sapiens, UniProt Q9UPZ9)
NEK9 = NEK9 (Homo sapiens, UniProt Q8TD19)
CLK2 = CLK2 (Homo sapiens, UniProt P49760)
ERK3 = ERK3 (Homo sapiens, UniProt Q16659)
MKNK2 = MKNK2 (Homo sapiens, UniProt Q9HBH9)
MET(Y1235D) = MET(Y1235D) (Homo sapiens, UniProt P08581, Y1235D)
YANK1 = YANK1 (Homo sapiens, UniProt Q8WU08)
SRMS = SRMS (Homo sapiens, UniProt Q9H3Y6)
GRK1 = GRK1 (Homo sapiens, UniProt Q15835)
SNARK = SNARK (Homo sapiens, UniProt Q9H093)
MST1 = MST1 (Homo sapiens, UniProt Q13043)
SRPK2 = SRPK2 (Homo sapiens, UniProt P78362)
CSNK1G2 = CSNK1G2 (Homo sapiens, UniProt P78368)
AKT1 = AKT1 (Homo sapiens, UniProt P31749)
ZAK = ZAK (Homo sapiens, UniProt Q9NYL2)
PLK1 = PLK1 (Homo sapiens, UniProt P53350)
AURKB = AURKB (Homo sapiens, UniProt Q96GD4)
ALK(C1156Y) = ALK(C1156Y) (Homo sapiens, UniProt Q9UM73, C1156Y)
BIKE = BIKE (Homo sapiens, UniProt Q9NSY1)
MARK4 = MARK4 (Homo sapiens, UniProt Q96L34)
EPHA6 = EPHA6 (Homo sapiens, UniProt Q9UF33)
DAPK1 = DAPK1 (Homo sapiens, UniProt P53355)
NEK3 = NEK3 (Homo sapiens, UniProt P51956)
CAMKK2 = CAMKK2 (Homo sapiens, UniProt Q96RR4)
CSNK1A1 = CSNK1A1 (Homo sapiens, UniProt P48729)
AKT2 = AKT2 (Homo sapiens, UniProt P31751)
SLK = SLK (Homo sapiens, UniProt Q9H2G2)
PAK3 = PAK3 (Homo sapiens, UniProt O75914)
MERTK = MERTK (Homo sapiens, UniProt Q12866)
KIT(D816H) = KIT(D816H) (Homo sapiens, UniProt P10721, D816H)

Chain of SLK (Q9H2G2 whole entry): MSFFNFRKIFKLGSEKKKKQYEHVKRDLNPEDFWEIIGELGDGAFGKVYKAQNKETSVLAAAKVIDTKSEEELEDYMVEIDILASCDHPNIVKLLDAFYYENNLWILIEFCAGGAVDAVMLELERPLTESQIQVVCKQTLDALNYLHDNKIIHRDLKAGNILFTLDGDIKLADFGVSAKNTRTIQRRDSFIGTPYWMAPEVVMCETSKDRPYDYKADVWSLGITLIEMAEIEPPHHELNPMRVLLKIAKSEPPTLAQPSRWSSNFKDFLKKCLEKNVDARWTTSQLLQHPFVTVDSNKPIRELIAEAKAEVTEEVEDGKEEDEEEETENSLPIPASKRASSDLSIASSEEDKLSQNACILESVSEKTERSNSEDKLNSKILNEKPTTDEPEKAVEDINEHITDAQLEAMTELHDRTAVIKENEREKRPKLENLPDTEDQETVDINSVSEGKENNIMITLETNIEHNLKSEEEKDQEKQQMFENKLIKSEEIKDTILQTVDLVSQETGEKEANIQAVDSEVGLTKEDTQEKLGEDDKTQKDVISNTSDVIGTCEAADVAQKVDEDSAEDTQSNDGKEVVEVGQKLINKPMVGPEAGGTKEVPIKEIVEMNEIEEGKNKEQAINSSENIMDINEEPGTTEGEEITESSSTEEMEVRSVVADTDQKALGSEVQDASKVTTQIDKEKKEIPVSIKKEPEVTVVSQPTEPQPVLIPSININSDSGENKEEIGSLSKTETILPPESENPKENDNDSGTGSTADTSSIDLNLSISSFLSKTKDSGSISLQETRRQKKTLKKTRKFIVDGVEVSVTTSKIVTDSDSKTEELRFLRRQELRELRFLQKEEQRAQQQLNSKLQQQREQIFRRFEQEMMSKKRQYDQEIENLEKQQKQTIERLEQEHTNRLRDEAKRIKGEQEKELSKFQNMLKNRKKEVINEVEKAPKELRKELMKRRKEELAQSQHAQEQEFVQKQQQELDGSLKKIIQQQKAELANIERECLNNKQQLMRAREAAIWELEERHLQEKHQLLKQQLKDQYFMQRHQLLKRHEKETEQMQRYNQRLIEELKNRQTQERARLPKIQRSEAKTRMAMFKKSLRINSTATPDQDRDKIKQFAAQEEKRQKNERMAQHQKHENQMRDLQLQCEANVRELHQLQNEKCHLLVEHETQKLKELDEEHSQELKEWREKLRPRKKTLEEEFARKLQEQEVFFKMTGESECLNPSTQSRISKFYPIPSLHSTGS
Chain of ICK (Q9UPZ9 whole entry): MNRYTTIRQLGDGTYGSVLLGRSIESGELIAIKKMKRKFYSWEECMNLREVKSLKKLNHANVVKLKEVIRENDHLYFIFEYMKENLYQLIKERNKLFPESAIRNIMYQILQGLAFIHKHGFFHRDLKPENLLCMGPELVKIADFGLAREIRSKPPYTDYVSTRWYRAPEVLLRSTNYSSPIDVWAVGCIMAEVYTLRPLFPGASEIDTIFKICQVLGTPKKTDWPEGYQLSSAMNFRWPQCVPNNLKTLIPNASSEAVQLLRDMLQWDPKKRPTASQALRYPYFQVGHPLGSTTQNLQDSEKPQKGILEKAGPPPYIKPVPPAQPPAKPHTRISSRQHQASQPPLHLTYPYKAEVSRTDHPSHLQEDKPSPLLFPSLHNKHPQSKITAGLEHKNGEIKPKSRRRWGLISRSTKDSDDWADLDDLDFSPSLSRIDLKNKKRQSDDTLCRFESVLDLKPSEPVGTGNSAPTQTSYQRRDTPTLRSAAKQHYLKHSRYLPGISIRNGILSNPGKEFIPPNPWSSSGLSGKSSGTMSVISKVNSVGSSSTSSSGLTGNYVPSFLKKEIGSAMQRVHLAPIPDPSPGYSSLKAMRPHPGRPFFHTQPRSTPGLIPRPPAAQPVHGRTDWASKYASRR
Chain of PLK1 (P53350 whole entry): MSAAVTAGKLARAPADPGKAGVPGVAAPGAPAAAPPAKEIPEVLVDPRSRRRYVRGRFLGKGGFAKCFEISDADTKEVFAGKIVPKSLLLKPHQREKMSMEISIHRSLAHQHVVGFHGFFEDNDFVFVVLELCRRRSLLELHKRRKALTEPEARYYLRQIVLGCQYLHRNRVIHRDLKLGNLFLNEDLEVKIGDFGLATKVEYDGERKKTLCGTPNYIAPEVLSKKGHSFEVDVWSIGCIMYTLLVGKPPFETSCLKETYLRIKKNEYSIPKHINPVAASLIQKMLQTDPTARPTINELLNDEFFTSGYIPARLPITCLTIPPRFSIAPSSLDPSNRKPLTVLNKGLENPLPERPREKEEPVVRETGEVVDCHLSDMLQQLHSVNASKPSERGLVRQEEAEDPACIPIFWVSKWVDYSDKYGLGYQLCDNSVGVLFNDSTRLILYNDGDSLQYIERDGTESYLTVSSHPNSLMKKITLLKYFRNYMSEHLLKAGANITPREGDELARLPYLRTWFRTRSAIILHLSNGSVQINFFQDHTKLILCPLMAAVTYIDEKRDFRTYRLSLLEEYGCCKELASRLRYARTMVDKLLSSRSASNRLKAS
Chain of AKT2 (P31751 whole entry): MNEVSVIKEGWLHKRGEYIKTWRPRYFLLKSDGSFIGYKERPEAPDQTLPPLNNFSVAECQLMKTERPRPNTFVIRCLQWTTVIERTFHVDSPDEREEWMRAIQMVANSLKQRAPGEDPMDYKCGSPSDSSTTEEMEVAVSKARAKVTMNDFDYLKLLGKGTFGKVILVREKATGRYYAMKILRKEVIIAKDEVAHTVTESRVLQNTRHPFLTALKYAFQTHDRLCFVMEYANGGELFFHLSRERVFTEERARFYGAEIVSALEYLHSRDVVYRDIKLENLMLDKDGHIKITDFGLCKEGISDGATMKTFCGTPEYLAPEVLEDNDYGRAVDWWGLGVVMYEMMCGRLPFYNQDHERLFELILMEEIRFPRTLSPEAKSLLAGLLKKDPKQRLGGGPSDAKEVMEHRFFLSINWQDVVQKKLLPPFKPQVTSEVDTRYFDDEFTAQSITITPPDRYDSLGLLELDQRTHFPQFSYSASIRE
Chain of CSNK1G2 (P78368 whole entry): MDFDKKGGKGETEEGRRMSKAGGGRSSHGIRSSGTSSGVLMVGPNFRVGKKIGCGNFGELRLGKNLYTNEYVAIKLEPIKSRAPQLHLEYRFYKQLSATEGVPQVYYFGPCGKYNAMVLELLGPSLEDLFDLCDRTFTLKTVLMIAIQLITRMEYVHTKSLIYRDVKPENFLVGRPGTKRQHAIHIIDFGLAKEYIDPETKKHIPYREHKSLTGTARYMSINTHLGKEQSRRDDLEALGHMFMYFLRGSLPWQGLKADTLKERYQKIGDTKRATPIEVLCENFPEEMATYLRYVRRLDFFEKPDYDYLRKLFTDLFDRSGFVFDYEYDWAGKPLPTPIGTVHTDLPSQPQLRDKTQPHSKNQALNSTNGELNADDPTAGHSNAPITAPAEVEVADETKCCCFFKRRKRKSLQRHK
Chain of NEK3 (P51956 whole entry): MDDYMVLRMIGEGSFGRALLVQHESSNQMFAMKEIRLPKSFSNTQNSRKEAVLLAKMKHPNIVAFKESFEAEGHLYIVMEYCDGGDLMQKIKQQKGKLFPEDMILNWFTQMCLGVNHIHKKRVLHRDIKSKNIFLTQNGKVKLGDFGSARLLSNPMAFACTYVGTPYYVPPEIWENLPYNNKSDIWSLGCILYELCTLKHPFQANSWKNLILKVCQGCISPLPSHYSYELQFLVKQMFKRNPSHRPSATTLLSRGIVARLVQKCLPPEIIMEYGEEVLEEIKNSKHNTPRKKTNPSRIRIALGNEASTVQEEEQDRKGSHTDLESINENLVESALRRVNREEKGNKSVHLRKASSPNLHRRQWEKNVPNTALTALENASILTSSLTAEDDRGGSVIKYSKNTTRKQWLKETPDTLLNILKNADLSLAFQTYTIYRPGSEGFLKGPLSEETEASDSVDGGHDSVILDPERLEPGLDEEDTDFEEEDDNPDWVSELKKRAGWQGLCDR
Chain of MERTK (Q12866 whole entry): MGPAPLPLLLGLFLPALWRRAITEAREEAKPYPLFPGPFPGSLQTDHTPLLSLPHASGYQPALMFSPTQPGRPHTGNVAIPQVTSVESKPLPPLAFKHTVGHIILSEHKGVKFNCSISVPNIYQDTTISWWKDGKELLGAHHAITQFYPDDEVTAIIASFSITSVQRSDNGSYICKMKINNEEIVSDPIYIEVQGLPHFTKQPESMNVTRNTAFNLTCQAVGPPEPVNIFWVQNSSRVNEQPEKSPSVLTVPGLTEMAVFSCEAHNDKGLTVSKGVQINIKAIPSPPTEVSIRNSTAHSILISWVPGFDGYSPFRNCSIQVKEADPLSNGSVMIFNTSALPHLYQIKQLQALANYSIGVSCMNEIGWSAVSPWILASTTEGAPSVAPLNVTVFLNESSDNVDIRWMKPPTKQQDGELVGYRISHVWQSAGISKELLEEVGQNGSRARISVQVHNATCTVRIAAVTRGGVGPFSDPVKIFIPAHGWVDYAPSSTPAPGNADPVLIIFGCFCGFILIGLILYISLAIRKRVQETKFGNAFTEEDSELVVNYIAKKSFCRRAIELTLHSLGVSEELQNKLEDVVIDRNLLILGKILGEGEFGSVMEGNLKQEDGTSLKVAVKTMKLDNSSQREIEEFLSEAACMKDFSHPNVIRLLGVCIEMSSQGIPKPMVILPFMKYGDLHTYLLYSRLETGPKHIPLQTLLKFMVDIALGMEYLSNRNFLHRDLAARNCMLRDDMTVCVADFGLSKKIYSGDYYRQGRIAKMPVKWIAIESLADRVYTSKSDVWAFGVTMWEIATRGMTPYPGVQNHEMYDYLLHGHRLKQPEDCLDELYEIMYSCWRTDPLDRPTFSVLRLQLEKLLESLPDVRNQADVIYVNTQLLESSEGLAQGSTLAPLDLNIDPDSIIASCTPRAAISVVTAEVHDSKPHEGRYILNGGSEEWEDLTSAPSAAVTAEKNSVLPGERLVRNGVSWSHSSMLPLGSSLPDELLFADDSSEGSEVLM

For CNc1ncc2cc(-c3ccc(-c4cccc(C)n4)cc3Cl)c(=O)n(C[C@H]3OC[C@H](N)CO3)c2n1 [compound 6, G-5555], the “Percent Control” value (ICK) was 100%, the “Percent Control” value (NEK9) was 100% and the “Percent Control” value (CLK2) was 100%. For the same compound, the “Percent Control” value (ERK3) was 100%, the “Percent Control” value (MKNK2) was 97% and the “Percent Control” value (MET(Y1235D)) was 93%. For the same compound, the “Percent Control” value (YANK1) was 3.7%, the “Percent Control” value (SRMS) was 100% and the “Percent Control” value (GRK1) was 100%. For the same compound, the “Percent Control” value (SNARK) was 2%, the “Percent Control” value (MST1) was 51% and the “Percent Control” value (SRPK2) was 70%. The “Percent Control” value (CSNK1G2) was 83%, the “Percent Control” value (AKT1) was 100% and the “Percent Control” value (ZAK) was 100%. The “Percent Control” value (PLK1) was 94%, the “Percent Control” value (AURKB) was 23% and the “Percent Control” value (ALK(C1156Y)) was 100%. The “Percent Control” value (BIKE) was 100%, the “Percent Control” value (MARK4) was 100% and the “Percent Control” value (EPHA6) was 100%. The “Percent Control” value (DAPK1) was 100%, the “Percent Control” value (NEK3) was 72% and the “Percent Control” value (CAMKK2) was 100%. For the same compound, the “Percent Control” value (CSNK1A1) was 89%, the “Percent Control” value (AKT2) was 100% and the “Percent Control” value (SLK) was 33%. For the same compound, the “Percent Control” value (PAK3) was 100%, the “Percent Control” value (MERTK) was 100% and the “Percent Control” value (KIT(D816H)) was 100%.
